Tested on: AIA mice
Assay: Antigen-induced arthritis (AIA) model
Format: in vivo, mouse
Source text: FIGS. 25A-25E depict distinguishable effects of GM-CSF and TNF-α in mouse AIA. […] Data are representative of more than three independent experiments. Representative images of joint sections stained with H&E (FIG. 25C) or Safranin-O/Fast Green (FIG. 25D) at day 7 after arthritis induction as in FIG. 25C. Bars, 500 μm (FIG. 25C upper panels and FIG. 25D) or 100 μm (FIG. 25C lower panels). Arrow in upper panels (FIG. 25C) indicated bone destruction. In FIG. 25E, serum concentrations of GM-CSF, IFN-γ and TNF-α in Stat5^+/+ and Stat5−/− AIA mice were quantified by ELISA. Statistics of n>=8 per group were shown. *p<0.05, **p<0.01, ***p<0.001.
FIGS. 28A-28G depicts STAT5-regulated GM-CSF-producing TH cells are crucial for AIA. Spleens and synovial tissues were collected from Stat5^+/+ and Stat5^−/− mice at day 7 after arthritis induction. (FIG. 28A) Splenic fractions of wild-type AIA mice (n=3) were stimulated under indicated conditions for 18 h. GM-CSF levels in supernatant were quantified by ELISA. (FIGS. 28B-28D) Intracellular staining and flow cytometry of GM-CSF, IL-17 and IFN-γ in splenic CD4^+CD44^hi effector T cells (FIG. 28B) or in synovial infiltrating CD4^+ T cells (FIGS. 28C and 28D) after restimulation for 4 h with PMA/Ionomycin in the presence of Golgiplug. Representative images and statistics of n=5 (FIG. 28B, right panels) or n=3 (FIG. 28D, right panels) per group were shown. Data represent two independent experiments. (FIG. 28E) Protein expression of several proinflammatory cytokines in synovial tissues was measured by ELISA. (FIGS. 28F and 28G) Representative images of joint sections stained with H&E (FIG. 28F) or Safranin-O/Fast Green (FIG. 28G) at day 7 after intraarticular injection of mBSA alone to the right knee joints and mBSA supplemented with GM-CSF to the left knee joints. Bars, 500, 50 or 200 μm as indicated. Data represent two independent experiments.*p<0.05, **p<0.01, p<0.05, **p<0.01, ***p<0.001; ns, not significant. “Splenocytes” represent the left-most bars in each group, “splenocytes depleted of CD4+ T cells” represent the middle bars in each group, and “CD4+ T cells” represent the right-most bars in each group.
FIGS. 31A-31D depicts SAT5-induced GM-CSF expression mediates CD11b^+ cell accumulation in inflamed synovial tissues. (FIG. 31A) The frequencies of CD11b^+ cells in spleens of Stat5^+/+ and Stat5^−/− AIA mice were analyzed by flow cytometry. Statistics of n=3 per group (right panel) were shown. (FIG. 31B) Synovial tissues were harvested from Stat5^+/+ and Stat5^−/− mice at day 7 after arthritis induction, and dissociated into single cell suspensions. The percentage of CD11b^+ myeloid cells among CD45^+ fraction was analyzed by flow cytometry. Statistics of n=5 per group were shown in right panel. […]

[1] = 100 ng intraarticular together with mBSA, day 7

GM-CSF: granulocyte macrophage colony-stimulating factor (ImmunoTools) given intraarticularly or added to cell cultures
cartilage depletion in Stat5−/− mice (Safranin-O/Fast Green) [1]: severe cartilage depletion
synovial inflammation in Stat5−/− mice [1]: efficiently restored synovial inflammation
neutrophil accumulation in synovial compartments of STAT5-deficient mice (intraarticular administration during arthritis induction): efficiently restored neutrophil accumulation
synovial CD11b+ cell accumulation in STAT5-deficient mice (local administration during arthritis induction): partially restored

Source: US10690666B2, “Methods and compositions for modulating TH-GM cell function” (National University of Singapore, priority 2014, dated 2020)
